Measured values published in the supplement of paper PMC10307832.

Key:
Test in all cases: relative viability (nuclei count vs DMSO), 5 days (fraction); higher = more cells survive
Bleomycin + Vorinostat = compound: CC1=C(N=C(N=C1N)[C@H](CC(=O)N)NC[C@@H](C(=O)N)N)C(=O)N[C@@H]([C@H](C2=CN=CN2)OC3C(C(C(C(O3)CO)O)O)OC4C(C(C(C(O4)CO)O)OC(=O)N)O)C(=O)N[C@H](C)[C@H]([C@H](C)C(=O)N[C@@H]([C@@H](C)O)C(=O)NCCC5=NC(=CS5)C6=NC(=CS6)C(=O)NCCC[S+](C)C)O [Bleomycin] + O=C(CCCCCCC(=O)Nc1ccccc1)NO [Vorinostat] (partner 1 µM); settings: main component drawn
Outline: (§1)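 Dosing by pin tool came one day after lung cancer cell lines were seeded in 1536-well plates, using either one drug or a fixed anchor-drug dose plus five library-drug doses (not always all listed) in √10 steps. After 5 days, nuclei were counted on 4× images. Relative viability is treated-well nuclei count divided by vehicle-well nuclei count, and values are medians of duplicate plates.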

Etoposide + AZD7762 = compound: COc1cc([C@@H]2c3cc4c(cc3[C@@H](O[C@@H]3O[C@@H]5CO[C@@H](C)O[C@H]5[C@H](O)[C@H]3O)[C@H]3COC(=O)[C@H]23)OCO4)cc(OC)c1O [Etoposide] + NC(=O)Nc1cc(-c2cccc(F)c2)sc1C(=O)N[C@H]1CCCNC1 [AZD7762] (partner 0.2 µM)
Outline: as §1

Etoposide + Phenformin = compound: COc1cc([C@@H]2c3cc4c(cc3[C@@H](O[C@@H]3O[C@@H]5CO[C@@H](C)O[C@H]5[C@H](O)[C@H]3O)[C@H]3COC(=O)[C@H]23)OCO4)cc(OC)c1O [Etoposide] + N=C(N)NC(=N)NCCc1ccccc1 [Phenformin] (partner 250 µM)
Outline: as §1

Bleomycin + Bortezomib = compound: CC1=C(N=C(N=C1N)[C@H](CC(=O)N)NC[C@@H](C(=O)N)N)C(=O)N[C@@H]([C@H](C2=CN=CN2)OC3C(C(C(C(O3)CO)O)O)OC4C(C(C(C(O4)CO)O)OC(=O)N)O)C(=O)N[C@H](C)[C@H]([C@H](C)C(=O)N[C@@H]([C@@H](C)O)C(=O)NCCC5=NC(=CS5)C6=NC(=CS6)C(=O)NCCC[S+](C)C)O [Bleomycin] + CC(C)C[C@H](NC(=O)[C@H](Cc1ccccc1)NC(=O)c1cnccn1)B(O)O [Bortezomib] (partner 0.002 µM); settings: main component drawn
Outline: as §1

Cell Line | relative viability (Bleomycin + Vorinostat; first compound 0.01 µM) | relative viability (Bleomycin + Vorinostat; first compound 0.03162 µM) | relative viability (Bleomycin + Vorinostat; first compound 0.1 µM) | relative viability (Bleomycin + Vorinostat; first compound 0.3162 µM) | relative viability (Bleomycin + Vorinostat; first compound 1 µM) | relative viability (Etoposide + AZD7762; first compound 0.01 µM) | relative viability (Etoposide + AZD7762; first compound 0.03162 µM) | relative viability (Etoposide + AZD7762; first compound 0.1 µM) | relative viability (Etoposide + AZD7762; first compound 0.3162 µM) | relative viability (Etoposide + AZD7762; first compound 1 µM) | relative viability (Etoposide + Phenformin; first compound 0.01 µM) | relative viability (Etoposide + Phenformin; first compound 0.03162 µM) | relative viability (Etoposide + Phenformin; first compound 0.1 µM) | relative viability (Etoposide + Phenformin; first compound 0.3162 µM) | relative viability (Etoposide + Phenformin; first compound 1 µM) | relative viability (Bleomycin + Bortezomib; first compound 0.01 µM) | relative viability (Bleomycin + Bortezomib; first compound 0.03162 µM) | relative viability (Bleomycin + Bortezomib; first compound 0.1 µM) | relative viability (Bleomycin + Bortezomib; first compound 0.3162 µM) | relative viability (Bleomycin + Bortezomib; first compound 1 µM)
NCI-H322M | 0.815 | 0.888 | 0.818 | 0.577 | 0.647 | 0.473 | 0.562 | 0.47 | 0.502 | 0.473 | 0.766 | 0.881 | 0.658 | 0.666 | 0.378 | 1.07 | 1.13 | 1.36 | 0.708 | 0.592
NCI-H727 | 1.18 | 1.17 | 1.08 | 0.618 | 0.93 | 0.647 | 0.582 | 0.405 | 0.527 | 0.579 | 0.556 | 0.664 | – | 0.531 | 0.437 | 0.796 | 0.853 | 0.775 | 0.303 | 0.37
NCI-H1734 | 0.612 | 0.623 | 0.472 | 0.231 | 0.15 | 0.561 | 0.538 | 0.333 | 0.306 | 0.19 | 0.366 | 0.468 | 0.324 | 0.37 | 0.233 | 0.732 | 0.664 | 0.725 | 0.239 | 0.226
LXF-289 | 0.723 | 0.718 | 0.614 | 0.331 | 0.167 | 1.07 | 1.1 | 1.23 | 0.892 | 0.4 | 0.568 | 0.534 | 0.585 | 0.421 | 0.153 | 0.861 | 0.944 | 0.775 | 0.27 | 0.135
H3255 | 0.737 | 0.891 | 0.538 | 0.682 | 0.363 | 0.949 | 0.95 | 0.726 | 0.66 | 0.668 | 0.35 | 0.404 | 0.353 | 0.322 | 0.305 | 0.664 | 0.925 | 0.666 | 0.283 | 0.244
201T | 0.79 | 0.839 | 0.805 | 0.732 | 0.553 | 0.612 | 0.751 | 0.47 | 0.492 | 0.37 | 0.45 | 0.51 | 0.381 | 0.368 | 0.322 | 1.12 | 1 | 1.01 | 0.921 | 0.827
HOP-62 | 0.277 | 0.277 | 0.179 | 0.102 | 0.0753 | 0.486 | 0.634 | 0.284 | 0.329 | 0.24 | 0.71 | 0.795 | 0.578 | 0.475 | 0.276 | 0.359 | 0.189 | 0.0755 | 0.113 | 0.072
CAL-12T | 0.542 | 0.532 | 0.351 | 0.166 | 0.155 | 0.567 | 0.792 | 0.613 | 0.477 | 0.409 | 0.594 | 0.612 | 0.586 | 0.409 | 0.221 | – | 0.87 | 0.692 | 0.293 | 0.28
NCI-H596 | 0.479 | 0.438 | 0.438 | 0.22 | 0.293 | 0.923 | 1.21 | 0.662 | 1.3 | 0.705 | 0.774 | 0.875 | 0.584 | 0.788 | 0.522 | 0.662 | 0.686 | 0.637 | 0.402 | 0.521
NCI-H1755 | 0.606 | 0.736 | 0.714 | 0.521 | 0.636 | 0.45 | 0.487 | 0.407 | 0.403 | 0.52 | 0.63 | 0.671 | 0.597 | 0.589 | 0.495 | 0.854 | 0.957 | 0.827 | 0.384 | 0.659
